Reference: the supplement of paper PMC10307832

Columns and labels:
Assay in all cases: relative viability (nuclei count vs DMSO), 5 days (fraction); higher = more cells survive
Fedratinib + Lapatinib = compound: Cc1cnc(Nc2ccc(OCCN3CCCC3)cc2)nc1Nc1cccc(S(=O)(=O)NC(C)(C)C)c1 [Fedratinib] + CS(=O)(=O)CCNCc1ccc(-c2ccc3ncnc(Nc4ccc(OCc5cccc(F)c5)c(Cl)c4)c3c2)o1 [Lapatinib] (partner 2 µM)
Procedure, shortened: (§1)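 Dosing by pin tool came one day after lung cancer cell lines were seeded in 1536-well plates, using either one drug or a fixed anchor-drug dose plus five library-drug doses (not always all listed) in √10 steps. After 5 days, nuclei were counted on 4× images. Relative viability is treated-well nuclei count divided by vehicle-well nuclei count, and values are medians of duplicate plates.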

Fedratinib + Navitoclax = compound: Cc1cnc(Nc2ccc(OCCN3CCCC3)cc2)nc1Nc1cccc(S(=O)(=O)NC(C)(C)C)c1 [Fedratinib] + CC1(C)CCC(c2ccc(Cl)cc2)=C(CN2CCN(c3ccc(C(=O)NS(=O)(=O)c4ccc(N[C@H](CCN5CCOCC5)CSc5ccccc5)c(S(=O)(=O)C(F)(F)F)c4)cc3)CC2)C1 [Navitoclax] (partner 0.5 µM)
Procedure, shortened: as §1

GW-2580 + Linsitinib = compound: COC1=CC=C(C=C1)COC2=C(C=C(C=C2)CC3=CN=C(N=C3N)N)OC [GW-2580] + C[C@]1(O)C[C@@H](c2nc(-c3ccc4ccc(-c5ccccc5)nc4c3)c3c(N)nccn32)C1 [Linsitinib] (partner 1 µM)
Procedure, shortened: as §1

GW-2580 + Navitoclax = compound: COC1=CC=C(C=C1)COC2=C(C=C(C=C2)CC3=CN=C(N=C3N)N)OC [GW-2580] + CC1(C)CCC(c2ccc(Cl)cc2)=C(CN2CCN(c3ccc(C(=O)NS(=O)(=O)c4ccc(N[C@H](CCN5CCOCC5)CSc5ccccc5)c(S(=O)(=O)C(F)(F)F)c4)cc3)CC2)C1 [Navitoclax] (partner 0.5 µM)
Procedure, shortened: as §1

Fedratinib + Alpelisib = compound: Cc1cnc(Nc2ccc(OCCN3CCCC3)cc2)nc1Nc1cccc(S(=O)(=O)NC(C)(C)C)c1 [Fedratinib] + Cc1nc(NC(=O)N2CCC[C@H]2C(N)=O)sc1-c1ccnc(C(C)(C)C(F)(F)F)c1 [Alpelisib] (partner 2 µM)
Procedure, shortened: as §1

Fedratinib + Palbociclib = compound: Cc1cnc(Nc2ccc(OCCN3CCCC3)cc2)nc1Nc1cccc(S(=O)(=O)NC(C)(C)C)c1 [Fedratinib] + CC(=O)c1c(C)c2cnc(Nc3ccc(N4CCNCC4)cn3)nc2n(C2CCCC2)c1=O [Palbociclib] (partner 0.5 µM)
Procedure, shortened: as §1

UMC-11 gave a relative viability (Fedratinib + Lapatinib; first compound 0.1 µM) of 0.825, a relative viability (Fedratinib + Lapatinib; first compound 0.3162 µM) of 1.08 and a relative viability (Fedratinib + Lapatinib; first compound 1 µM) of 0.284. It also gave a relative viability (Fedratinib + Navitoclax; first compound 0.1 µM) of 0.31, a relative viability (Fedratinib + Navitoclax; first compound 0.3162 µM) of 0.275 and a relative viability (Fedratinib + Navitoclax; first compound 1 µM) of 0.228. It also gave a relative viability (GW-2580 + Linsitinib; first compound 0.08 µM) of 1.02, a relative viability (GW-2580 + Linsitinib; first compound 0.8 µM) of 1.15 and a relative viability (GW-2580 + Linsitinib; first compound 2.53 µM) of 0.998. It also gave a relative viability (GW-2580 + Linsitinib; first compound 8 µM) of 1.02, a relative viability (GW-2580 + Navitoclax; first compound 0.08 µM) of 0.309 and a relative viability (GW-2580 + Navitoclax; first compound 0.8 µM) of 0.342. The relative viability (GW-2580 + Navitoclax; first compound 2.53 µM) was 0.291, the relative viability (GW-2580 + Navitoclax; first compound 8 µM) was 0.324 and the relative viability (Fedratinib + Alpelisib; first compound 0.1 µM) was 0.985. The relative viability (Fedratinib + Alpelisib; first compound 0.3162 µM) was 0.876, the relative viability (Fedratinib + Alpelisib; first compound 1 µM) was 0.95 and the relative viability (Fedratinib + Palbociclib; first compound 0.1 µM) was 0.345. The relative viability (Fedratinib + Palbociclib; first compound 0.3162 µM) was 0.311 and the relative viability (Fedratinib + Palbociclib; first compound 1 µM) was 0.301.
